From patent US11648290B2, “Cartilage-homing peptides” (FRED HUTCHINSON CANCER CENTER, priority 2015, dated 2023)

What was measured:
[1] = test system: cartilage (IVD, knee / synovial joints); experiment: Whole body autoradiography (WBA) of radiolabeled cartilage homing peptides (Example 21); type: in vivo, Female Harlan athymic nude mice
Procedure: This example illustrates peptide homing to cartilage mice 5 minutes to 48 hours after administration of a radiolabeled peptide. Signal from the radiolabeled peptides was found in all types of cartilage at each time point examined. Each peptide was radiolabeled by methylating […] as described in EXAMPLE 2. As such, the peptide may contain methyl or dimethyl lysines and a methylated or dimethylated amino terminus. A dose of 100 nmol radiolabeled peptide was administered via tail vein injection in Female Harlan athymic nude mice, weighing 20-25 g. The experiment was done in duplicate (n=2 animals per group). In some animals, kidneys were ligated to prevent renal filtration of the radiolabeled peptides and extend plasma half-life. Each radiolabeled peptide was allowed to freely circulate within the animal for the described time period before the animals were euthanized and sectioned.
Whole body autoradiography (WBA) sagittal sectioning was performed as follows. […] Sections were allowed to desiccate in a freezer prior to imaging.
For the autoradiography imaging, tape mounted thin sections were freeze dried and radioactive samples were exposed to phophoimager plates for 7 days.

pepsin = pepsin (Homo sapiens, UniProt P0DJD8); experiment: Peptide resistance to pepsin digestion / simulated gastric fluid (RP-HPLC); type: in vitro ADME; settings: 12.5 ug peptide, 20 ug pepsin, SGF pH 1.05, 30 minutes at 37.5 C
Sequence of pepsin (P0DJD8 63-388): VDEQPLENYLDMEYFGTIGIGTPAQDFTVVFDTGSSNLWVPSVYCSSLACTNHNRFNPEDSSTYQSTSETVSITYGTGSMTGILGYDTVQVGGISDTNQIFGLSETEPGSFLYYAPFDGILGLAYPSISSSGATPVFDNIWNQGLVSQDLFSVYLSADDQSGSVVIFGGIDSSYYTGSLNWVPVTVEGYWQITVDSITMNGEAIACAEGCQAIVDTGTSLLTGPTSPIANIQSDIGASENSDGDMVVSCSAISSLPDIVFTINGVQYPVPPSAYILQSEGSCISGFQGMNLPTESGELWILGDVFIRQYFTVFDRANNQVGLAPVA
Procedure: SEQ ID NO: 24 peptide and SEQ ID NO: 111 peptide were suspended in 500 μl of ddH2O at a stock concentration of 2 mg/ml. Reactions were prepared with 12.5 μg peptide and 20 μg pepsin in simulated gastric fluid (pH 1.05) and incubated for 30 minutes at 37.5° C. Reactions were quenched with a final concentration of 100 mM Tris base and 10 mM dithiothreitol (DTT). Reversed phase HPLC (RP-HPLC) was run on samples using an Agilent 1260 HPLC equipped with a C-18 Poroshell 120B column. Sample were analyzed by a gradient method with a mobile phase of Solvent A (water with 0.1% TFA) and Solvent B (acetonitrile with 0.1% TFA). Solvent B was ramped up from 5%-45% of the mobile phase over a period of 10 minutes. Peptides were detected at an absorbance of 214 nm and 280 nm.

[2] = Peptide resistance to reducing agents (10 mM DTT, RP-HPLC); type: physicochemical; settings: 10 mM DTT in PBS, room temperature, 30 minutes
Procedure: Several peptides were suspended in 500 μl of ddH2O to a stock concentration of 2 mg/ml. Reactions were prepared by adding 12.5 μg peptide from the stock solution to a 10 mM solution of DTT in PBS and allowed to incubate at room temperature for 30 minutes. RP-HPLC was run on samples using an Agilent 1260 HPLC equipped with a C-18 Poroshell 120B column. Samples were analyzed by a gradient method with a mobile phase of Solvent A (water with 0.1% TFA) and Solvent B (acetonitrile with 0.1% TFA). Solvent B was ramped up from 5%-45% of the mobile phase over a period of 10 minutes.
Peptides were fractionated by HPLC and without any further sample prep, 5 μl of the sample was injected into the mass spectrometer at 1 mg/ml using a CTCPAL® autosampler. Alternatively, if peptides were provided as a lyophilized powder, the sample was dissolved in 100% water to a concentration of 1 mg/ml a Millipore Ziptip C18® column was used to desalt the peptides prior to injection for ES-MS. The mass spectrometer was calibrated using 5 pmol of mixture of five standard peptides to achieve a high accuracy of mass determination with less than a 10 ppm error. Confirmation of peptide disulfide bond formation was achieved by analyzing the m/z isotopic distribution and the exact charge. All peptides tested are shown under reducing and non-reducing conditions.

[3] = Intravenous and oral administration of radiolabeled peptide: plasma, urine, feces; type: in vivo, female Harlan athymic nude mice
Procedure: This example describes intravenous and oral administration of peptides of this disclosure, including transit of the intact peptide through the GI tract and to the feces after oral administration. A radiolabeled peptide of SEQ ID NO: 24 was administered intravenously or orally to female Harlan athymic nude mice, 6-8 weeks of age. Radiolabeled peptides of SEQ ID NO: 24 was administered intravenously (IV) at a dose of 4.8 μCi/20 nmol. Radiolabeled peptide of SEQ ID NO: 24 was administered orally (PO) at a dose of 24 μCi/100 nmol. Mice were euthanized at various time points by CO2 asphyxiation and biological fluids were collected, including blood, urine, and feces. Urine was collected be abdominal palpitation immediately before CO2 asphyxiation. Blood was collected by cardiac puncture immediately after CO2 asphyxiation and centrifuged to separate plasma. Feces was collected either before or after CO2 asphyxiation by palpitation of the colon. Samples were analyzed by HPLC to quantify the concentration or dose of intact peptide recovered in plasma, urine, and feces. For HPLC analysis, urine samples were first diluted at a 1:20 ratio in water and plasma samples were diluted at a 1:5 ratio in water. Feces samples were dissolved in Tris buffer, centrifuged to remove the insoluble fraction, and supernatants were diluted at a 1:1 ratio in water.
The delivered dose of ^14C was 4.8 for intravenous administration and 24 μCi for oral administration. Time points examined included 0.08, 0.5, 1, 3, 8, 24, 48 hours and three mice were examined per time point. […] The delivered dose of ^14C was 4.8 for intravenous administration and 24 μCi for oral administration. Time points examined included 0.08, 0.5, 1, 3, 8, 24, 48 hours and three mice were examined per time point. […] The delivered dose of ^14C was 24 μCi for oral administration. Time points examined included 0.5, 1, and 3 hours. […] The intact peptide was eluted near 6 minutes, whereas cleaved fragments—such as the N-terminal Gly residue—were eluted near 1 minute.
(§1) The delivered dose of ^14C was 4.8 μCi for intravenous administration and 24 μCi for oral administration. Time points examined included 0.08, 0.5, 1, 3, 8, 24, 48 hours and three mice were examined per time point. […] The delivered dose of ^14C was 24 μCi for oral administration. Time points examined included 0.5, 1, 3, 8, 24, and 48 hours.
as §1, with “included 3” for “included 0.5, 1, 3, 8, 24,”, “and 8” for “and 48”

cartilage = settings: 3 hours, ligated kidneys
Procedure: This example describes a dosing scheme for administering knottin peptides to mice in conjunction with kidney ligation. Different dosages of the peptides were administered to Female Harlan athymic nude mice, weighing 20 g-25 g, via tail vein injection (n=2 mice per knottin). The experiment was done in duplicates. The kidneys were ligated to prevent renal filtration of the peptides. Each peptide was radiolabeled by methylating lysines and the N-terminus, so the actual binding agent may contain methyl or dimethyl lysine(s) and a methylated or dimethylated amino terminus.
A target dosage of 50-100 nmol of each peptide carrying 10-25 uCi of ^14C was administered to Female Harlan athymic nude mice while anesthetized. Each peptide was allowed to freely circulate within the animal before the animals were euthanized and sectioned.
This example illustrates peptide homing to cartilage of mice with kidneys that were ligated prior to peptide administration. At the end of the dosing period in EXAMPLE 3, mice were frozen in a hexane/dry ice bath and then frozen in a block of carboxymethylcellulose. […] Thin, frozen sections of animal including imaging of tissues such as brain, tumor, liver, kidney, lung, heart, spleen, pancreas, muscle, adipose, gall bladder, upper gastrointestinal tract, lower gastrointestinal tract, bone, bone marrow, reproductive track, eye, cartilage, stomach, skin, spinal cord, bladder, salivary gland, and other types of tissues were obtained with a microtome, allowed to desiccate in a freezer, and exposed to phosphoimager plates for about ten days.
These plates were developed, and the signal (densitometry) from each organ was normalized to the signal found in the heart blood of each animal. A signal in tissue darker than the signal expected from blood in that tissue indicates peptide accumulation in a region, tissue, structure or cell. For instance, the cartilage is avascular and contains minute amounts of blood. A ratio of at least 170% signal in the cartilage versus heart ventricle was chosen as a reference level for significant targeting to cartilage, which also correlated with clear accumulation in cartilaginous tissues in the images of the slices.
The SEQ ID NO: 24 peptide was radiolabeled as in Example 3 and 100 nmol of peptide was injected into a mouse with intact kidneys. FIG. 5 illustrates the retention of and the tissue distribution in the cartilage of a peptide of SEQ ID NO: 24, 24 hours after administration.

pepsin, trypsin = experiment: HPLC after exposure to oxidative, reductive, acidic conditions and proteinases (FIG. 72); type: in vitro ADME; settings: pH 1 / SGF pH 1.05, 10 mM DTT, 500 U pepsin, 50 U trypsin
Procedure: FIG. 72 illustrates HPLC chromatograms of peptides of SEQ ID NO: 111 and SEQ ID NO: 434 after exposure to a range of conditions including oxidative, reductive, and acidic conditions as well as after exposure to proteinases. FIG. 72A illustrates the HPLC trace of a peptide of SEQ ID NO: 111 under reducing and acidic conditions. FIG. 72B illustrates the HPLC trace of a peptide of SEQ ID NO: 111 under various combinations of reducing agents and proteases including 10 mM DTT in 500 U pepsin, 500 U pepsin, 10 mM DTT in 50 U trypsin, and 50 U trypsin. FIG. 72C illustrates the HPLC trace of a peptide of SEQ ID NO: 434 under various protease conditions including in 500 U pepsin, in 50 U trypsin, non-reducing (NR, oxidized conditions) in simulated gastric fluid (SGF) at pH 1.05, and NR.
FIG. 72 illustrates HPLC chromatograms of peptides of SEQ ID NO: 111 and SEQ ID NO: 434 after exposure to a range of conditions including oxidative, reductive, and acidic conditions as well as after exposure to proteinases. The peptide of SEQ ID NO: 434 is a linearized version of the knottin peptide of SEQ ID NO: 111. The peptide of SEQ ID NO: 434 has the same amino acid sequence as the knottin peptide of SEQ ID NO: 111, but with all cysteines mutated to serines. FIG. 72A illustrates the HPLC trace of a peptide of SEQ ID NO: 111 under reducing and acidic conditions. […]

[4] = 3 hours after 100 nmol radiolabeled peptide
[5] = 24 hours after 100 nmol radiolabeled peptide
[6] = 0.08 hours after 100 nmol radiolabeled peptide
[7] = 0.5 hours after 100 nmol radiolabeled peptide
[8] = 1 hour after 100 nmol radiolabeled peptide
[9] = 8 hours after 100 nmol radiolabeled peptide
[10] = 48 hours after 100 nmol radiolabeled peptide

Sequence: GSGVPINVKCRGSRDCLDPCKKAGMRFGKCINSKCHCTP [SEQ ID NO: 24]
- Signal in IVD as a percentage of the blood [1, 4]: 1779%
- Signal in IVD as a percentage of the blood [1, 5]: 833%
- Resistance to degradation in DTT, SGF, SGF and pepsin, SPTD solutions (pepsin): highly resistant to degradation
- HPLC peaks under non-reducing versus reducing conditions (resistance to reduction by DTT) [2]: Peaks showing the peptide under non-reducing conditions and reducing conditions are overlapping
- Detection of radioactive signal from the dosed peptide in plasma ([3]; IV 20 nmol / PO 100 nmol): at least 50 hours
- Plasma concentration as percent of the dose ([3]; IV administration, 20 nmol): up to 10 % of the dose
- Plasma concentration as percent of the dose ([3]; PO administration, 100 nmol): up to 1 % of the dose
- Intact peptide in feces ([3]; oral dosing 100 nmol, 3 and 8 hours): detected in feces after oral dosing
- Nature of radioactivity detected in plasma (HPLC / scintillation) ([3]; oral gavage 100 nmol, 0.5, 1, 3 hours): nearly some of all of the radioactivity detected in plasma was due to fragments of the administered peptide
- Cartilage types reached (FIGS. 3-4) (cartilage): homing of SEQ ID NO: 24 to hyaline cartilage such as articular cartilage and physeal cartilage, as well as fibrocartilage

Sequence: GSGVPINVRCRGSRDCLDPCRRAGMRFGRCINSRCHCTP [SEQ ID NO: 111]
- Time at which the signal to background ratio in IVD peaked ([1]; 100 nmol): 24 h
- Time at which the signal to background ratio in knee joints peaked ([1]; 100 nmol): 8 h
- Presence of radiolabeled peptide in IVD and synovial joints ([1]; 100 nmol, 5 minutes-48 hours): observed in the intervertebral disc (IVD) and synovial joints at all time points (5 minutes-48 hours)
- Signal in IVD as a percentage of the blood [1, 6]: 164%
- Signal in knee joints as a percentage of the blood [1, 6]: 404%
- Signal in IVD as a percentage of the blood [1, 7]: 369%
- Signal in knee joints as a percentage of the blood [1, 7]: 510%
- Signal in IVD as a percentage of the blood [1, 8]: 961%
- Signal in knee joints as a percentage of the blood [1, 8]: 1114%
- Signal in IVD as a percentage of the blood [1, 4]: 3213%
- Signal in knee joints as a percentage of the blood [1, 4]: 4059%
- Signal in IVD as a percentage of the blood [1, 9]: 3777%
- Signal in knee joints as a percentage of the blood [1, 9]: 4990%
- Signal in IVD as a percentage of the blood [1, 5]: 5391%
- Signal in knee joints as a percentage of the blood [1, 5]: 2137%
- Signal in IVD as a percentage of the blood [1, 10]: 3320%
- Signal in knee joints as a percentage of the blood [1, 10]: 843%
- Signal of folded knotted peptide compared to linearized peptide of SEQ ID NO: 434 ([1]; IVD, 3 hours): ~20 fold
- Resistance to degradation in DTT, SGF, SGF and pepsin, SPTD solutions (pepsin): similarly highly resistant in the various conditions tested
- HPLC peaks under non-reducing versus reducing conditions (resistance to reduction by DTT) [2]: Peaks showing the peptide under non-reducing conditions and reducing conditions are fully overlapping
- Resistance to degradation (FIG. 72) (pepsin, trypsin): highly resistant to degradation at pH 1, reducing agents, trypsin, and pepsin

Sequence: GSGVPINVRSRGSRDSLDPSRRAGMRGRSINSRSHSTP [SEQ ID NO: 434, reference compound]
- Cartilage homing (qualitative, WBA) ([1]; 100 nmol radiolabeled peptide): homed to cartilage to a much lesser extent than the folded knotted peptide
- Signal in IVD as a percentage of signal in blood ([1]; 3 hr Intact Kidneys, 100 nmol): 177%
- Signal in IVD as a percentage of signal in blood ([1]; 3 hr Ligated Kidneys, 100 nmol): 117%
- Signal in IVD as a percentage of signal in blood ([1]; 24 hr Intact Kidneys, 100 nmol): 104%
- Resistance to degradation (FIG. 72) (pepsin, trypsin): more susceptible to degradation at these different conditions
